Results on 3 molecules are retold here after patent US6753295B1, “Plant activator, process for producing the same, activation method, activity promoter and method for applying the promoter” (Hokkaido Green Kosan, Incorporated, priority 1999, dated 2004).

A value given as a limit tells only on which side of the number the result lay.

What all share (format): cell-based
One experiment deals with Erwinia sp. In words: paper disk bioassay of the purified product against bacteria. The note with it: 1000, 500 and 250 ppm; 37° C., 18 hours. The procedure: (§1) An agar medium containing a test bacterium was placed in a Petri dish and fixed therein. A paper disk containing the sample was placed thereon and incubated at 37° C. for 18 hours, and formation of a circle of inhibited growth was confirmed.
(§2) The following 4 strains were used: Staphylococcus aureus 209P, Pseudomonas syringal, Xanthomonoas Campestris pv. citri, and Erwinia sp.
(§3) For pre-culture, a bouillon medium (DIFCO) was used, and after overnight cultivation, the cultivation medium was diluted at ×10^2 and mixed with 0.5% upper-layer medium. As the medium for measuring the bacterium, Mycin agar (Mikumi Kagaku) was used.
(§4) Upper layer−1.5% Mycin agar (Mikuni Kagaku)+0.5% Mycin agar mixed with the overnight cultivation (diluted at ×10^2) in 2% bouillon medium (DIFCO)
(§5) Lower layer−2.0% Mycin agar (Mikuni Kagaku)
(§6) A paper disk was impregnated with the isolated and purified product prepared at 1000 ppm, 500 ppm and 250 ppm respectively was air-dried, placed on the Petri dish and incubated at 37° C. for 18 hours, and whether a circle of inhibited growth was formed or not was observed.

The next experiment has as its system Pseudomonas syringal. The experiment is described as above. The note with it: 1000, 500 and 250 ppm; 37° C., 18 hours. The procedure: as §1, §2, §3, §4, §5, §6
Experiment [1] has as its system Staphylococcus aureus 209P. The experiment is described as above. The note with it: 1000, 500 and 250 ppm; 37° C., 18 hours. The procedure:
as §1, §2, §3, §4, §5, §6

In experiment [2] the test system is Xanthomonoas Campestris pv. citri. The experiment is described as above. The note with it: 1000, 500 and 250 ppm; 37° C., 18 hours. On the procedure:
as §1, §2, §3, §4, §5, §6

The next experiment relates to E. coli NIHJ JC-2. In words: MIC, agar plate dilution method. The conditions noted are these: E.coliNIHJ JC-2. The procedure:
(§7) 22 strains in total, that is, 1 strain of S. aureus 209P JC-1, 20 strains of 1G-stored, clinically separated Staphylococcus (10 strains each of MSSA and MRSA), and 1 strain of E. coli NIHJ JC-2 as the standard strain.
(§8) MW:168, methicilin (DMPPC, staphcililn for injection, Lot. No. FSB […], Banyu Pharmaceutical Co., Ltd.), vancomycin (VCM, Lot. No. 41H0457, 10750, SIGMA).
(§9) Mueller-Hinton agar (MIA, Difco) was used for measurement of antimicrobial properties, and Mueller Hinton broth (MHB, Difco) was used for pre-cultivation.
(§10) The minimum inhibitory concentration (MIC) of each chemical against the used strain was determined according to an agar plate dilution method in accordance with the standard methods of Japanese Society of Chemotherapy. The strain was sprayed onto MHA and cultured at 37° C. overnight, and the resultant colonies were cultured in MHB at 37° C. overnight, and its microbial liquid was diluted 100-fold (1000-fold dilution for E. coli) and used as inoculation liquid.

The next experiment deals with S. aureus 209P JC-1. As to the kind of experiment: MIC, agar plate dilution method. The conditions noted are these: S.aureu209P JC-1. The procedure:
as §7, §8, §9, §10

Experiment [3] relates to clinically separated Staphylococcus (MSSA and MRSA). As to the kind of experiment: MIC, agar plate dilution method. The procedure: as §7, §8, §9, §10

In the case of `O=C(O)/C=C/C1=CC(=O)CC1O` (centres unmarked) [MW168, 3(3-hydroxy-cyclopropene 5-one-2-yl)2-propenoic acid], the “circle of inhibited growth / activity against the bacteria” value (in the experiment with Erwinia sp.; in the experiment on Pseudomonas syringal; in experiment [1]; in experiment [2]) was “no or less activity” in each case. Moreover, the MIC (against E. coli NIHJ JC-2; with S. aureus 209P JC-1; in experiment [3] (MRSA TH948); in experiment [3] (MRSA TH949); in experiment [3] (MRSA TH950); in experiment [3] (MRSA TH951)) was more than 50 micro gram/ml each time. The MIC in experiment [3] (MRSA TH952), in experiment [3] (MRSA TH953), in experiment [3] (MRSA TH954), in experiment [3] (MRSA TH955), in experiment [3] (MRSA TH956) and in experiment [3] (MRSA TH957) was more than 50 micro gram/ml in each case. Further, the MIC in experiment [3] (MRSA TH972), in experiment [3] (MRSA TH973), in experiment [3] (MRSA TH974), in experiment [3] (MRSA TH975), in experiment [3] (MRSA TH976) and in experiment [3] (MRSA TH1350) was more than 50 micro gram/ml in each case. Moreover, the MIC in experiment [3] (MRSA TH1351), in experiment [3] (MRSA TH1352), in experiment [3] (MRSA TH1353) and in experiment [3] (MRSA TH1354) was more than 50 micro gram/ml in each case. The “antimicrobial properties against Staphylococcus” value in experiment [3] (concentrations used 50˜0.10 micro gram/ml) was “no or less activity”.

For the molecule `CN[C@H](CC(C)C)C(=O)N[C@H]1C(=O)N[C@@H](CC(N)=O)C(=O)N[C@H]2C(=O)N[C@H]3C(=O)N[C@H](C(=O)N[C@H](C(=O)O)c4cc(O)cc(O)c4-c4cc3ccc4O)[C@H](O)c3ccc(c(Cl)c3)Oc3cc2cc(c3O[C@@H]2O[C@H](CO)[C@@H](O)[C@H](O)[C@H]2O[C@H]2C[C@](C)(N)[C@H](O)[C@H](C)O2)Oc2ccc(cc2Cl)[C@H]1O` [VCM, vancomycin], the MIC was more than 6.25 micro gram/ml against E. coli NIHJ JC-2; 0.78 micro gram/ml with S. aureus 209P JC-1; 0.78 micro gram/ml in experiment [3] (MRSA TH948); 0.78 micro gram/ml in experiment [3] (MRSA TH949); 0.78 micro gram/ml in experiment [3] (MRSA TH950); 0.78 micro gram/ml in experiment [3] (MRSA TH951). Further, the MIC in experiment [3] (MRSA TH952), in experiment [3] (MRSA TH953), in experiment [3] (MRSA TH954), in experiment [3] (MRSA TH955), in experiment [3] (MRSA TH956) and in experiment [3] (MRSA TH957) was 0.78 micro gram/ml in each case. In addition, the MIC in experiment [3] (MRSA TH972), in experiment [3] (MRSA TH973), in experiment [3] (MRSA TH974), in experiment [3] (MRSA TH975), in experiment [3] (MRSA TH976) and in experiment [3] (MRSA TH1350) was 0.78 micro gram/ml each time. For the same molecule, the MIC in experiment [3] (MRSA TH1351), in experiment [3] (MRSA TH1352), in experiment [3] (MRSA TH1353) and in experiment [3] (MRSA TH1354) was 0.78 micro gram/ml each time.

As for `COc1cccc(OC)c1C(=O)N[C@@H]1C(=O)N2[C@@H]1SC(C)(C)[C@@H]2C(=O)O` [DMPP, methicilin], the MIC came out at 3.13 micro gram/ml against E. coli NIHJ JC-2; 1.56 micro gram/ml against S. aureus 209P JC-1; 1.56 micro gram/ml in experiment [3] (MRSA TH948); 3.13 micro gram/ml in experiment [3] (MRSA TH949); 3.13 micro gram/ml in experiment [3] (MRSA TH950); 3.13 micro gram/ml in experiment [3] (MRSA TH951). The MIC in experiment [3] (MRSA TH952) is given as 1.56 micro gram/ml; in experiment [3] (MRSA TH953), 3.13 micro gram/ml; in experiment [3] (MRSA TH954), 3.13 micro gram/ml; in experiment [3] (MRSA TH955), 1.56 micro gram/ml; in experiment [3] (MRSA TH956), 3.13 micro gram/ml; in experiment [3] (MRSA TH957) it was 1.56 micro gram/ml. In addition, the MIC in experiment [3] (MRSA TH972) is more than 12.5 micro gram/ml; in experiment [3] (MRSA TH973), more than 12.5 micro gram/ml; in experiment [3] (MRSA TH974) it was more than 12.5 micro gram/ml; in experiment [3] (MRSA TH975), more than 12.5 micro gram/ml; in experiment [3] (MRSA TH976), more than 12.5 micro gram/ml; in experiment [3] (MRSA TH1350), 12.5 micro gram/ml. For the same molecule, the MIC is listed as 6.25 micro gram/ml in experiment [3] (MRSA TH1351), more than 12.5 micro gram/ml in experiment [3] (MRSA TH1352), more than 12.5 micro gram/ml in experiment [3] (MRSA TH1353) and more than 12.5 micro gram/ml in experiment [3] (MRSA TH1354).
